The values that follow come from EP0063381A1, “Pyrazolo(3-4-d) pyrimidines, process for their preparation and pharmaceutical compositions containing them” (Byk Gulden Lomberg Chemische Fabrik GmbH, priority 1981, dated 1982).

Where two headings read alike, the source gives them in different places.

For test [1], the system named is Rinderherz PDE "Boehringer". Put plainly: Inhibition of phosphodiesterase (PDE), substrate cAMP. It counts as biochemical, Rind. Particulars: compound 0,2 mM; substrate cAMP 0,15 mM; Rinderherz PDE in Glycerin; 200 µM. As for the experimental part: Die Tabelle 1. gibt die gefundenen Werte der Hemmung der Phosphodiesterase (PDE) an. Es wurde Rinderherz PDE "Boehringer" in Glycerin und als Substrat cAMP (0,15 mM) verwendet. Die Konzentration der untersuchten Verbindungen war 0,2 mM.

Test [2] deals with durch Methanol hervorgerufene Retinaschädigung. Put plainly: Retinotropic effect measured on the mouse electroretinogram (antagonism of methanol-induced retinal damage). It counts as in vivo, Maus. Particulars: for Retinotrope Wirkung [%]: Elektroretinogramm der Maus; for retinotrope Wirkung (in words): in the dose range in which the compounds of the invention were tested. The source says:
Die Versuchsmethodik ist bei K.K.Gauri und W.Hohl, Der Augenspiegel, 1979 (Heft 9), und […] Referenzen beschrieben.

Test [3] deals with Trachealspangen-Kette des Meerschweinchens. Kind of test: Relaxation of the spontaneously contracted guinea pig tracheal ring chain in vitro (organ bath). Also on record: species or system Meerschweinchen. Particulars: for Relative Wirkungsstärke (Theophyllin=1,00): relative to Theophyllin, from ED50 of tracheal relaxation; for EC50: relaxation as fraction of maximum by (-)Isoprenalin 10^-6 mol/l, cumulative concentrations, 37°C, read-out: ED50 (Dosis der halbmaximal möglichen Relaxation). Here is the method: Weiterhin wurde die relaxierende Wirkung erfindungsgemäBer Verbindungen auf die Trachealspangen-Kette des Meerschweinchens in vitro geprüft:
Vier parallele, aus jeweils 6 Einzelringen bestehende Trachealspangen-Ketten des Meerschweinchens (♂ und ♀, 430-600 g) im Organbad (5 ml, Krebs-Henseleit-Lösung mit Zusatz von Phentolamin (10^-5 mol/l, 37°C, Vorspannung der Organe 2 g, Begasung mit Carbogen) entwickeln nach etwa 20 bis 30 Minuten eine stabile, tonische Spontankontraktur. An diesen dauerkontrahierten Organen kann unter isometrischen Meßbedingungen durch Applikation der Prüfsubstanz in kumulativhalblogarithmisch ansteigender Konzentration (z.B. 1x10^-6 + 2x10^-6 + 7x10^-6 + 2x10^-5 usw. mol/l) eine Relaxation herbeigeführt werden, wobei nach jeder Einzeldosis der Testsubstanz eine konstante Relaxations-Antwort abgewartet wird, bevor die nächst höhere Konzentration appliziert wird. Ober einen Zeitraum von 20 bis 30 Minuten wird somit eine vollständige Dosis-Wirkungskurve der Testsubstanz erhalten. Die jeweilige Relaxation wird als Prozentbruchteil der durch Gabe von (-)Isoprenalin (10^-6 mol/1) maximal erreichbaren Relaxation ausgedrückt.
In Tabelle 3 sind die ED50 (Dosis der halbmaximal möglichen Relaxation) und die relative Wirkungsstärke im Vergleich zu Theophyllin für erfindungsgemäße Verbindungen angegeben.

Turning to `CCCCCCn1c(=O)n(C)c(=O)c2c[nH]nc21` [I, 7-n-Hexyl-4,5,6,7-tetrahydro-5-methyl-4,6-dioxo-2H-pyrazolo[3,4-d]-pyrimidin], the “Hemmung der PDE in %” value in test [1] is 47,84%.
Same read-out and setting: the figure for `CCCCCCn1c(=O)n(C)c(=O)c2cn(C)nc21` [II, 7-n-Hexyl-4,5,6,7-tetrahydro-2,5-dimethyl-4,6-dioxo-2H-pyrazolo[3,4-d]-pyrimidin] is 47,41%.
Consider `CCCCCCn1c(=O)n(C)c(=O)c2cn(CC)nc21` [III, 2-Ethyl-7-n-hexyl-4,5,6,7-tetrahydro-5-methyl-4,6-dioxo-2H-pyrazolo-[3,4-d]pyrimidin], for which the “Retinotrope Wirkung [%]” value in test [2] (Dosis 1 mg/kg) is recorded as “+24%”. For the same molecule, the “Hemmung der PDE in %” value in test [1] is listed as 58,51%.
For `CCCCCCn1c(=O)n(C)c(=O)c2cn(CCC)nc21` [IV, 7-n-Hexyl-4,5,6,7-tetrahydro-5-methyl-4,6-dioxo-2-n-propyl-2H-pyrazolo-[3,4-d]pyrimidin], in test [1], the “Hemmung der PDE in %” value was 63,04%.
Take `CCCCCCn1c(=O)c2cn(CC)nc2n(C)c1=O` [IX, 2-Ethyl-5-n-hexyl-4,5,6,7-tetrahydro-7-methyl-4,6-dioxo-2H-pyrazolo-[3,4-d]pyrimidin]: in test [3], the “Relative Wirkungsstärke (Theophyllin=1,00)” value (“Relative Wirkungsstärke” below) was 3,4 and the EC50 came to 38 µM. In test [2] (Dosis 1 mg/kg), the “Retinotrope Wirkung [%]” value was “+12%”. In addition, the “Hemmung der PDE in %” value in test [1] was 71,52%.
Consider `CC(=O)CCCCn1c(=O)c2c(ncn2C)n(C)c1=O` [Pentoxifyllin, reference compound], for which the “Retinotrope Wirkung [%]” value in test [2] (Dosis 6,25 mg/kg) stood at 0%. Besides, the “retinotrope Wirkung (in words)” value in test [2] is “noch keine retinotrope Wirkung”.
Take `Cn1c(=O)c2[nH]cnc2n(C)c1=O` [Theophyllin, reference compound]: in test [3], the “Relative Wirkungsstärke” value was 1,00 and the EC50 was found to be 130 µM. The “Retinotrope Wirkung [%]” value in test [2] (Dosis 10 mg/kg) worked out at 0%. The “retinotrope Wirkung (in words)” value in test [2] is on record as “noch keine retinotrope Wirkung”. In addition, the “Hemmung der PDE in %” value in test [1] is listed as 37,13%.
Consider `CCCCCCn1c(=O)n(C)c(=O)c2cn(CCCC)nc21` [V, 2-n-Butyl-7-n-hexyl-4,5,6,7-tetrahydro-5-methyl-4,6-dioxo-2H-pyra-zolo-[3,4-d]pyrimidin], for which, in test [3], the “Relative Wirkungsstärke” value is on record as 1,8 and the EC50 was 62 µM. Besides, the “Hemmung der PDE in %” value in test [1] is on record as 70,86%.
With `CCCCCCn1cc2c(=O)n(C)c(=O)n(CCCCCC)c2n1` [VI, 2,7-Di-n-hexyl-4,5,6,7-tetrahydro-5-methyl-4,6-dioxo-2H-pyrazolo[3,4-d]-pyrimidin], in test [1], the “Hemmung der PDE in %” value is given as 37,30%.
Same read-out and setting: as for `CCCCCCn1c(=O)c2cn[nH]c2n(C)c1=O` [VII, 5-n-Hexyl-4,5,6,7-tetrahydro-7-methyl-4,6-dioxo-1H-pyrazolo[3,4-d]-pyrimidin], the figure is 52,43%; as for `CCCCCCn1c(=O)c2cn(C)nc2n(C)c1=O` [VIII, 5-n-Hexyl-4,5,6,7-tetrahydro-2,7-dimethyl-4,6-dioxo-2H-pyrazolo-[3,4-d]pyrimidin], 42,04%.
As to `CCCCCCn1c(=O)c2cn(CCCC)nc2n(C)c1=O` [X, 2-n-Butyl-5-n-hexyl-4,5,6,7-tetrahydro-7-methyl-4,6-dioxo-2H-pyra-zolo[3,4-d]pyrimidin], the “Hemmung der PDE in %” value in test [1] was 37,83%.
The same measure, in the same setting: the figure for `CCCCCCn1cc2c(=O)n(CCCCCC)c(=O)n(C)c2n1` [XI, 2,5-Di-n-hexyl-4,5,6,7-tetrahydro-7-methyl-4,6-dioxo-2H-pyrazolo-[3,4-d]pyrimidin] is 18,35%.
In the case of `CCCCCCn1c(=O)c2cn(C(=O)c3cc(OC)c(OC)c(OC)c3)nc2n(C)c1=O` [XII, 5-n-Hexyl-4,5,6,7-tetrahydro-2-(3,4,5-trimethoxybenzoyl)-7-methyl-4,6-dioxo-2H-pyrazolo[3,4-d]pyrimidin], in test [3] (Cavia porcellus), the EC50 is 350 µM. Also, the “Relative Wirkungsstärke” value in test [3] is reported as 3,7. The “Retinotrope Wirkung [%]” value in test [2] (Dosis 1 mg/kg) was “+40%”.
With `CCCCCCn1c(=O)n(C)c(=O)c2cnn(C)c21` [XIII, 7-Hexyl-4,5,6,7-tetrahydro-1,5-dimethyl-4,6-dioxo-1H-pyrazolo-[3,4-d]pyrimidin], in test [3], the “Relative Wirkungsstärke” value is given as 1,4 and the EC50 amounted to 95 µM.
On to `COc1cc(C(=O)n2cc3c(=O)n(CC(C)C)c(=O)n(C)c3n2)cc(OC)c1OC` [XVI, 5-i-Butyl-4,5,6,7-tetrahydro-2-(3,4,5-trimethoxybenzoyl)-7-methyl-4,6-dioxo-2H-pyrazolo[3,4-d]pyrimidin], for which, in test [3], the “Relative Wirkungsstärke” value is 1,7 and the EC50 is 75 µM.
Turning to `CCn1c(=O)n(CCCCC(C)=O)c(=O)c2cnn(C)c21` [XVII, 7-Ethyl-4,5,6,7-tetrahydro-1-methyl-4,6-dioxo-5'-(5-oxo-n-hexyl)-1H-pyrazolo[3,4-d]pyrimidin], in test [3], the “Relative Wirkungsstärke” value is given as 2,0 and the EC50 came to 66 µM. Moreover, the “Retinotrope Wirkung [%]” value in test [2] (Dosis 2 mg/kg) is reported as “+80%”.
`CC(C)Cn1c(=O)n(C)c(=O)c2cn(CCO)nc21` [XVIII, 7-j-Butyl-4,5,6,7-tetrahydro-2-(2-hydroxyethyl)-5-methyl-4,6-dioxo-2H-pyrazolo[3,4-d]pyrimidin]: in test [3], the “Relative Wirkungsstärke” value is listed as 10,0 and the EC50 came out at 13 µM.
For `CC(C)Cn1c(=O)n(C)c(=O)c2c[nH]nc21` [XV], in that order: 7,6 and 17 µM.
